Values of other authors as cited in US12606918B2, “Production of sanitizing fluid using in situ electrolysis” (APPLIED PHAGE GMBH, priority 2024, dated 2026).
Where two headings read alike, the source gives them in different places.

Compound: [O-][Cl+2]([O-])O [chlorate]
- ADI (allowable daily intake) (as ClO3^−): 0.0024 mg/kg BW·day
- ADI (allowable daily intake) (as NaClO3): 0.003 mg/kg BW·day
- Arfd (acute reference dose) (as NaClO3): 0.003 mg/kg BW·day
